Laboratory results reported in PMC7352759, “S(+)-(2E)-N-(2-Hydroxypropyl)-3-Phenylprop-2-Enamide (KM-568): A Novel Cinnamamide Derivative with Anticonvulsant Activity in Animal Models of Seizures and Epilepsy” (International Journal of Molecular Sciences, 2020).

Assays:
Type in all cases: in vivo
[1] = test system: mice; test: Maximal electroshock test (MES), mice; conditions: for ED50: Mus musculus, 95% confidence interval in parentheses
Procedure: In vivo activity testing was performed at the Epilepsy Branch, National Institute of Neurological Disorders and Stroke, National Institutes of Health (NIH, Bethesda, USA) within the Anticonvulsant Screening Program (ASP) (currently known as the Epilepsy Therapy Screening Program (ETSP)). Pharmacological evaluation was planned and performed in accordance with the Institute of Laboratory Resources polices on the humane care of laboratory animals and approved by the University of Utah’s Institutional Animal Care and Use Committee (IACUC). All testing protocols were previously published as well as they are available on the NIH website. In the tests, albino mice Carworth Farms No.1 (CF-1) (Charles River), C57/Bl6 mice (Charles River), Frings mice (University of Utah) or male rats Sprague–Dawley (Charles River) were used. All animals were housed, fed, and handled in a manner consistent with the recommendations in the National Council Publication, ‘Guide for the Care and Use of Laboratory animals’ [51]. The tested compound was suspended in 0.5% methylcellulose.
After intraperitoneal or oral administration of compound KM-568 at certain dose, an alternating current at 60 Hz and 50 mA (mice) or 150 mA (rats) was delivered for 0.2 sec via corneal electrodes to induce seizures. Prior to each stimulation, a drop of 0.5% tetracaine hydrochloride in saline was applied to cornea. Protection was defined as the abolition of the hindlimb tonic extension of the seizures.

[2] = Neurotoxicity (TOX), rotarod test, mice; conditions: mouse, in vivo, rotarod, 0.25 h, 95% confidence interval in parentheses
Procedure: (§1) In mice, the neurological deficit was measured by the rotarod test in which a 1 inch diameter knurled plastic rod rotating at 6 rpm was used. Tests were performed at 0.25 h or 0.5 h of intraperitoneal or oral administration of the certain dose of the compounds KM-568. Each mouse was placed on the rod. If the animal was not able to remain on the rod for at least 1 min in each of three trials, the neurotoxicity was scored. In rats, the neurological deficit was measured in behavioral tests and scored when ataxia and loss of placing response and muscle tone were observed. Tests in rats were performed after 0.5 h of intraperitoneal administration or 1.0 h of oral administration of the certain dose of compound KM-568. TD50s were calculated by probit analysis.

[3] = test system: mice; test: Neurotoxicity (TOX), rotarod test, mice
Procedure: as §1

[4] = test system: C57/Bl6 mice; test: Mesial temporal lobe epilepsy model (MTLE); conditions: 114 mg/kg i.p., recording period 20–40 min
Procedure: Adult male C57/Bl6 mice were placed in a stereotactic frame, injected with kainate (1 nmol/100 nL) and implanted with 1 bipolar electrode in the dorsal hippocampus. The animals were then allowed to recover for four weeks. Four animals chosen for tests were intraperitoneally injected with KM-568 at 114 mg/kg (ED50 obtained in 6-Hz 44 mA test). Digital EEG recordings were performed on freely moving animals for 20 min pre-injection (reference period) and from 20 to 40 min after injection (10 min before and 10 min after peak time of effect in a 6-Hz 44 mA test). Animals are used as their own controls. In the testing periods, spontaneous recurrent hippocampal paroxysmal discharges (HPD) were counted.

[5] = test system: LTG-resistant amygdala kindled Sprague–Dawley rats; test: Lamotrigine (LTG) resistant amygdala kindled seizure model in rats; conditions: 0.25 h
Procedure: Anesthetized male Sprague–Dawley rats (250–300 g) were surgically implanted with an electrode into the left amygdala. After a one-week recovery period, kindling was initiated. A suprathreshold stimulus (200 µA) was delivered daily until all animals display stage 4–5 seizures. Lamotrigine at 5 mg/kg i.p. was also administered daily during kindling acquisition. One week after all animals were kindled, the animals received a challenge dose of lamotrigine (30 mg/kg, i.p.) to confirm LTG-resistance. On the 4th day, compound KM-568 was administered i.p. at the doses 20, 40, and 80 mg/kg. Fifteen minutes after administration, rats were challenged with the kindling stimulus. Results were provided as seizure score (according to Racine scale, protection defined as less than 3) and after discharge duration (in sec).

[6] = test system: rats; test: Pilocarpine-induced status epilepticus model
Procedure: Compound KM-568 was tested in rats at the doses in the range 200–400 mg/kg i.p. in a pilocarpine-induced status epilepticus model. After administration of pilocarpine, at the time point when a convulsive effect of at least level 3 in the Racine scale was noted (time 0 h) and 0.5 h afterwards (time 0.5 h), KM-568 was administered intraperitoneally at a certain dose.
Pilocarpine was administered intraperitoneally into rats at the dose of 50 mg/kg. Each animal was being observed. The time point when the convulsive effect at the level of at least 3 in the Racine scale was noted (time 0 h), and, 0.5 h (time 0.5 h) afterwards, KM-568 was administered.

C[C@H](O)CNC(=O)/C=C/c1ccccc1 [KM-568, S(+)-(2E)-N-(2-hydroxypropyl)-3-phenylprop-2-enamide]
ED50 ([1]; ip, 0.25 h): 44.5 mg/kg
ED50 ([1]; po, 0.5 h): 86.6 mg/kg
MES Results (protected/tested animals) ([1]; i.p., 25 mg/kg, 0.25 h): 0/8
MES Results (protected/tested animals) ([1]; i.p., 38 mg/kg, 0.25 h): 1/8
MES Results (protected/tested animals) ([1]; i.p., 41 mg/kg, 0.25 h): 0/8
MES Results (protected/tested animals) ([1]; i.p., 42 mg/kg, 0.25 h): 2/8
MES Results (protected/tested animals) ([1]; i.p., 44 mg/kg, 0.25 h): 5/8
MES Results (protected/tested animals) ([1]; i.p., 50 mg/kg, 0.25 h): 7/8
MES Results (protected/tested animals) ([1]; p.o., 50 mg/kg, 0.5 h): 0/8
MES Results (protected/tested animals) ([1]; p.o., 60 mg/kg, 0.5 h): 2/8
MES Results (protected/tested animals) ([1]; p.o., 70 mg/kg, 0.5 h): 2/8
MES Results (protected/tested animals) ([1]; p.o., 90 mg/kg, 0.5 h): 3/8
MES Results (protected/tested animals) ([1]; p.o., 120 mg/kg, 0.5 h): 7/8
MES Results (protected/tested animals) ([1]; p.o., 150 mg/kg, 0.5 h): 8/8
TD50 at 0.25 h ([2]; ip): 148 mg/kg
TD50 at 0.25 h ([2]; po): 344 mg/kg
TOX Results (animals displaying neurotoxicity/animals used) ([3]; i.p., 100 mg/kg, 0.25 h): 0/8
TOX Results (animals displaying neurotoxicity/animals used) ([3]; i.p., 125 mg/kg, 0.25 h): 0/8
TOX Results (animals displaying neurotoxicity/animals used) ([3]; i.p., 138 mg/kg, 0.25 h): 2/8
TOX Results (animals displaying neurotoxicity/animals used) ([3]; i.p., 150 mg/kg, 0.25 h): 5/8
TOX Results (animals displaying neurotoxicity/animals used) ([3]; i.p., 170 mg/kg, 0.25 h): 7/8
TOX Results (animals displaying neurotoxicity/animals used) ([3]; i.p., 200 mg/kg, 0.25 h): 8/8
TOX Results (animals displaying neurotoxicity/animals used) ([3]; p.o., 200 mg/kg): 0/8
TOX Results (animals displaying neurotoxicity/animals used) ([3]; p.o., 300 mg/kg): 3/8
TOX Results (animals displaying neurotoxicity/animals used) ([3]; p.o., 350 mg/kg): 5/8
TOX Results (animals displaying neurotoxicity/animals used) ([3]; p.o., 400 mg/kg): 5/8
TOX Results (animals displaying neurotoxicity/animals used) ([3]; p.o., 500 mg/kg): 7/8
Effect (% of Baseline), HPD counts [4]: 73.9 % of Baseline
Mean HPD Counts [4]: 12.8
ED50 ([5]; Rattus norvegicus, ip): 58.6 mg/kg
Results (protected/tested animals; protection = Racine score <3) ([5]; i.p., 20 mg/kg): 0/7
Seizure Duration ± SD ([5]; i.p., 20 mg/kg): 140 ± 17.55 s
Seizure Score ± SEM ([5]; i.p., 20 mg/kg): 5.0 ± 0.0
Results (protected/tested animals; protection = Racine score <3) ([5]; i.p., 40 mg/kg): 2/7
Seizure Duration ± SD ([5]; i.p., 40 mg/kg): 94.71 ± 8.72 s
Seizure Score ± SEM ([5]; i.p., 40 mg/kg): 3.86 ± 0.74
Results (protected/tested animals; protection = Racine score <3) ([5]; i.p., 80 mg/kg): 5/7
Seizure Duration ± SD ([5]; i.p., 80 mg/kg): 56.57 ± 12.34 s
Seizure Score ± SEM ([5]; i.p., 80 mg/kg): 2.86 ± 0.63
ED50, lamotrigine-resistant amygdala kindled rat model ([5]; i.p.): 58.69 (38.09–120.15) mg/kg
ED50 ([6]; Rattus norvegicus, ip, 0.5 h, given at time 0.5 h): 297 mg/kg
Results (protected/tested animals) ([6]; i.p., 200 mg/kg, given at time 0 h): 8/8
Results (protected/tested animals) ([6]; i.p., 200 mg/kg, given at time 0.5 h): 1/8
Results (protected/tested animals) ([6]; i.p., 300 mg/kg, given at time 0.5 h): 5/8
Results (protected/tested animals) ([6]; i.p., 400 mg/kg, given at time 0.5 h): 7/8
ED50, pilocarpine-induced status epilepticus ([6]; i.p., given at time 0.5 h): 279.45 (212.61–344.62) mg/kg
ED97, pilocarpine-induced status epilepticus ([6]; i.p., given at time 0.5 h): 498.2 (378.3–1526.9) mg/kg
